A short description of data set [1]: Circulating half-life and concentration in mice. It is filed as in vivo. How it is done:
(§1) Rapamycin was formulated for in vivo administration by dissolution in equal parts of N,N-dimethylacetamide and a 9:1 (v:v) mixture of polyethylene glycol (average molecular weight of 400) and polyoxyethylene sorbitan monooleate. Concentrations of rapamycin, in the completed formulation, were sufficient to allow for in vivo administration of the appropriate dose in a 2.0 ml/kg injection volume. The accuracy of the dosing solutions was confirmed by HPLC analysis prior to intravenous administration into the tail veins. Some control mice, bearing no transfected HT1080 cells, received 10.0 mg/kg rapamycin. In addition, other control mice, bearing transfected cells, received only the rapamycin vehicle.
To examine the kinetics of rapamycin control of hGH production, we treated animals with a single dose of rapamycin and then measured hGH levels at different times thereafter. […] The slower decay of serum hGH relative to rapamycin could reflect the presence of higher tissue concentrations of rapamycin in the vicinity of the implanted cells. Alternatively, persistence of hGH production from the engineered cells may be enhanced by the stability of hGH mRNA.
Therefore, to ascertain the ability of this system to elevate and maintain circulating hGH concentrations, we performed an experiment in which animals received multiple doses of rapamycin at 16-hour intervals. This interval corresponds to the time required for hGH levels to peak and then decline approximately half-way. According to this regimen, rapamycin concentration is predicted to approach a steady-state trough concentration of 1.7 μg/ml after two doses. hGH levels should also approach a steady state trough concentration following the second dose. […] In particular, it is apparent that protein production is rapidly terminated upon withdrawal of drug.

The test system of data set [2] is SEAP target gene in HT1080 cells. Description: Rapamycin-dependent transcriptional activation in transiently transfected cells (ZFHD1-3FKBP + 1FRB-p65 fusions, SEAP). It is filed as cell-based, human. How it is done:
SEAP production was not detected in cells in which one or both of the transcription factor fusion plasmids was omitted, nor was it detected in the absence of added rapamycin. When all components were present, however, SEAP secretion was detectable at rapamycin concentrations as low as 0.5 nM. […] Similar results have been obtained when the same transcription factors were used to drive rapamycin-dependent activation of an hGH reporter gene or a stably integrated version of the SEAP reporter gene made by infection with a retroviral vector. It is difficult to determine the fold activation in response to rapamycin since levels of SEAP secretion in the absence of drug are undetectable, but it is clear that in this system there is at least a 1000-fold enhancement over background levels in the absence of rapamycin.
HT1080 cells (ATCC CCL-121), derived from a human fibrosarcoma, were grown in MEM supplemented with non-essential amino acids and 10% Fetal Bovine Serum. Cells plated in 24-well dishes (Falcon, 6×10^4 cells/well) were transfected using Lipofectamine under conditions recommended by the manufacturer (GIBCO/BRL). A total of 300 ng of the following DNA was transfected into each well: 100 ng ZFHD×12-CMV-SEAP reporter gene, 2.5 ng pCGNN-ZFHD1-3FKBP or other DNA binding domain fusion, 5 ng pCGNN-1FRB-p65(361-550) or other activation domain fusion and 192.5 ng pUC118. In cases where the DNA binding domain or activation domain were omitted an equivalent amount of empty pCGNN expression vector was substituted. Following lipofection (for 5 hours) 500 μl medium containing the indicated amounts of rapamycin was added to each well. After 24 hours, medium was removed and assayed for SEAP activity as described (Spencer et al, Science 262:1019-24, 1993) using a Luminescence Spectrometer (Perkin Elmer) at 350 nm excitation and 450 nm emission. Background SEAP activity, measured from mock-transfected cells, was subtracted from each value.

The test system of data set [3] is hGH reporter gene in transplanted transfected HT1080 cells. The data set can be described thus: Rapamycin-dependent production of hGH in mice bearing transfected HT1080 cells. It counts as in vivo. As for the experimental part:
To prepare transiently transfected HT1080 cells for injection into mice (See below), cells in 100 mm dishes (2×10^6 cells/dish) were transfected by calcium phosphate precipitation for 16 hours (Gatz, C., Kaiser, A. & Wendenburg, R. , 1991,Mol. Gen. Genet. 227, 229-237) with the following DNAs: […] of ZHWT×12-CMV-hGH, […] pCGNN-ZFHD1-3FKBP, […] pCGNN-1FRB-p65(361-550) and […] pUC118. Transfected cells were rinsed 2 times with phosphate buffered saline (PBS) and given fresh medium for 5 hours. To harvest for injection, cells were removed from the dish in Hepes Buffered Saline Solution containing 10 mM EDTA, washed with PBS/0.1% BSA/0.1% glucose and resuspended in the same at a concentration of 2×10^7 cells/ml.
In Vivo Methods: Animals, husbandry, and general procedures. Male nu/nu mice were obtained from Charles River Laboratories (Wilmington, Mass.) and allowed to acclimate for five days prior to experimentation. They were housed under sterile conditions, were allowed free access to sterile food and sterile water throughout the entire experiment, and were handled with sterile techniques throughout.
To transplant transiently transfected cells into mice, 2×10^6 transfected HT1080 cells, were suspended in […] PBS/0.1% BSA/0.1% glucose buffer, and administered into four intramuscular sites (approximately […] per site) on the haunches and flanks of the animals. Control mice received equivalent volume injections of buffer alone.
as §1
Blood was collected by either anesthetizing or sacrificing mice via CO2 inhalation. Anesthetized mice were used to collect […] of blood by cardiac puncture. The mice were revived and allowed to recover for subsequent blood collections. Sacrificed mice were immediately exsanguinated. Blood samples were allowed to clot for 24 hours, at 4° C., and sera were collected following centrifugation at 1000×g for 15 minutes. Serum hGH was measured by the Boehringer Mannheim non-isotopic sandwich ELISA (Cat No. 1 585 878). […] Absorbance was read at 405 nm with a 490 nm reference wavelength on a Molecular Devices microtiter plate reader. […]

Data set [4] has as its system SEAP target gene in stably transfected HT1080 cells. The data set can be described thus: Rapamycin-dependent SEAP production in stably transfected cell clone. It counts as cell-based, human. The conditions noted are these: stable clone, 100 nM rapamycin, SEAP assay length increased about 50-fold. An excerpt:
We generated stable cell lines by sequential transfection of a SEAP target gene and expression vectors for ZFHD1-3FKBP and 1FRB-p65, respectively. […] From this pool, we characterized several individual clones, many of which produced high levels of SEAP in response to rapamycin. […] In an attempt to rigorously quantitate background SEAP production and induction ratio in this clone, we performed a second set of assays in which the length of the SEAP assay was increased by a factor of approximately 50 to detect any SEAP activity in untreated cells. Under these conditions, mock transfected cells produced 47 arbitrary fluorescence units, while the transfected clone produced 54 units in the absence of rapamycin and over 90,000 units at 100 nM rapamycin. […]
To simplify the task of stable transfection, we used a bicistronic expression vector that directs the production of both ZFHD1-3FKBP and 1FRB-p65 through the use of an internal ribosome entry sequence (IRES). […] All 12 clones analyzed were inducible and had little or no basal activity. […]
HT20-6 cells, which contain the pLH-ZHWT×12-IL2-SEAP reporter gene, ZFHD1-3FKBP DNA binding domain and 1FRB-p65(361-550) activation domain stably integrated, were generated by first infecting HT1080L cells with SMTN-ZFHD1-3FKBP-packaged retrovirus and selecting in medium containing […] G418. […] Eight positive clones were analyzed by addition of rapamycin. […]

Where [5] appears, read: five i.v. 10.0 mg/kg doses at 16-hour intervals.

For `CO[C@H]1C[C@@H]2CC[C@@H](C)[C@@](O)(O2)C(=O)C(=O)N2CCCC[C@H]2C(=O)O[C@H]([C@H](C)C[C@@H]2CC[C@@H](O)[C@H](OC)C2)CC(=O)[C@H](C)/C=C(\C)[C@@H](O)[C@@H](OC)C(=O)[C@H](C)C[C@H](C)/C=C/C=C/C=C/1C` [rapamycin], in data set [1] (after two doses, 10.0 mg/kg i.v. at 16-hour intervals), the “predicted steady-state trough concentration of rapamycin” value is 1.7 µg/mL. Also, the half-life in data set [1] (nu/nu, mouse, in vivo, iv, in these animals (mice), i.v., read-out: half-life of rapamycin (converted)) was 4.6 h. In data set [2], the “enhancement of SEAP over background levels in the absence of rapamycin” value is on record as not below 1000 fold. In data set [2] (24 hours), the “rapamycin concentration of peak SEAP secretion” value came to 5 nM. Moreover, in data set [2] (all components present, 24 hours), the “lowest rapamycin concentration at which SEAP secretion was detectable” value worked out at 0.5 nM. Further, in data set [3] (setting [5]), the “half-life of hGH decline after the final rapamycin dose” value turned out to be 6.8 h and the “time hGH levels remained constant after the final dose” value stood at 16 h. In addition, in data set [3] (single i.v. dose 10.0 mg/kg), the “half-life of decay of serum hGH concentration from its peak” value was “approximately 11 hours” and the “time after treatment at which serum hGH remained detectable” value was found to be 42 h. Also, the SEAP production result in data set [4] is listed as “over 90,000 arbitrary fluorescence units”.

In the case of “hGH: human growth hormone, reporter gene product secreted by engineered cells”, in data set [1] (in these animals (mice)), the “half-life of hGH clearance from the circulation” value is on record as “less than four”.

Source of the values: US20030143731A1, “Use of heterologous transcription factors in gene therapy” (ARIAD Gene Therapeutics, Inc., priority 1995, published 2003).
